We go through 27 molecules from US12240815B2, “Potent and selective human neuronal nitric oxide synthase inhibitors” (Northwestern University, priority 2020, dated 2025).

A word on the pKi: it is −log10 of the Ki, conventionally taken in molar units. For orientation: Papp means the rate of passage across a membrane or cell layer, normalised by area and donor concentration.

Data set [1] addresses human iNOS (Homo sapiens, UniProt P35228). In words: NO hemoglobin capture assay, human iNOS.
The target of data set [2] is rat nNOS (Rattus norvegicus, UniProt P29476). Nature of the data set: NO hemoglobin capture assay, rat nNOS. The format is biochemical. To be noted: for Selectivity n/i: nNOS versus iNOS.
The target of data set [3] is human nNOS (Homo sapiens, UniProt P29475). Nature of the data set: NO hemoglobin capture assay, human nNOS. The format is biochemical. To be noted: for Selectivity Human n/e: human nNOS versus human eNOS.
For data set [4], the target named is murine macrophage iNOS (Mus musculus, UniProt P29477). In words: NO hemoglobin capture assay, murine iNOS. The format is biochemical. Conditions: Table 1; Ki from IC50 by Cheng-Prusoff; 10 μM L-Arg, pH 7.4, 37° C.
Data set [5] in a line: PAMPA-BBB assay. To be noted: for Papp at 17 h, 200 μM: PAMPA, pH 7.5; for Pe PAMPA-BBB: Table 4. (In general: PAMPA measures passive passage across an artificial lipid membrane.)
In data set [6] the target is iNOS (Mus musculus, UniProt P29477). In words: NO hemoglobin capture assay, iNOS (Table 4, species not given).
Data set [7] addresses human eNOS (Homo sapiens, UniProt P29474). In words: NO hemoglobin capture assay, human eNOS.
[8] abbreviates: read-out: Ki HiNOS, Table 5, Ki from IC50 by Cheng-Prusoff, 8 to 11 concentrations.
Setting [9] is: Table 5, Ki from IC50 by Cheng-Prusoff, 8 to 11 concentrations, read-out: Ki RnNOS.
Setting [10] is: Table 5, Ki from IC50 by Cheng-Prusoff, 8 to 11 concentrations, read-out: Ki HnNOS.
Setting [11] is: pH 7.4, read-out: Ki human nNOS.
Where [12] appears, read: Table 4, read-out: Ki Human nNOS.

pKi: −log10 of the molar value. Structures can show the parent of a compound that is named as a salt. Where two headings read alike, the source gives them in different places. Some results are limits rather than exact numbers.

Sequence of human nNOS (P29475 whole entry): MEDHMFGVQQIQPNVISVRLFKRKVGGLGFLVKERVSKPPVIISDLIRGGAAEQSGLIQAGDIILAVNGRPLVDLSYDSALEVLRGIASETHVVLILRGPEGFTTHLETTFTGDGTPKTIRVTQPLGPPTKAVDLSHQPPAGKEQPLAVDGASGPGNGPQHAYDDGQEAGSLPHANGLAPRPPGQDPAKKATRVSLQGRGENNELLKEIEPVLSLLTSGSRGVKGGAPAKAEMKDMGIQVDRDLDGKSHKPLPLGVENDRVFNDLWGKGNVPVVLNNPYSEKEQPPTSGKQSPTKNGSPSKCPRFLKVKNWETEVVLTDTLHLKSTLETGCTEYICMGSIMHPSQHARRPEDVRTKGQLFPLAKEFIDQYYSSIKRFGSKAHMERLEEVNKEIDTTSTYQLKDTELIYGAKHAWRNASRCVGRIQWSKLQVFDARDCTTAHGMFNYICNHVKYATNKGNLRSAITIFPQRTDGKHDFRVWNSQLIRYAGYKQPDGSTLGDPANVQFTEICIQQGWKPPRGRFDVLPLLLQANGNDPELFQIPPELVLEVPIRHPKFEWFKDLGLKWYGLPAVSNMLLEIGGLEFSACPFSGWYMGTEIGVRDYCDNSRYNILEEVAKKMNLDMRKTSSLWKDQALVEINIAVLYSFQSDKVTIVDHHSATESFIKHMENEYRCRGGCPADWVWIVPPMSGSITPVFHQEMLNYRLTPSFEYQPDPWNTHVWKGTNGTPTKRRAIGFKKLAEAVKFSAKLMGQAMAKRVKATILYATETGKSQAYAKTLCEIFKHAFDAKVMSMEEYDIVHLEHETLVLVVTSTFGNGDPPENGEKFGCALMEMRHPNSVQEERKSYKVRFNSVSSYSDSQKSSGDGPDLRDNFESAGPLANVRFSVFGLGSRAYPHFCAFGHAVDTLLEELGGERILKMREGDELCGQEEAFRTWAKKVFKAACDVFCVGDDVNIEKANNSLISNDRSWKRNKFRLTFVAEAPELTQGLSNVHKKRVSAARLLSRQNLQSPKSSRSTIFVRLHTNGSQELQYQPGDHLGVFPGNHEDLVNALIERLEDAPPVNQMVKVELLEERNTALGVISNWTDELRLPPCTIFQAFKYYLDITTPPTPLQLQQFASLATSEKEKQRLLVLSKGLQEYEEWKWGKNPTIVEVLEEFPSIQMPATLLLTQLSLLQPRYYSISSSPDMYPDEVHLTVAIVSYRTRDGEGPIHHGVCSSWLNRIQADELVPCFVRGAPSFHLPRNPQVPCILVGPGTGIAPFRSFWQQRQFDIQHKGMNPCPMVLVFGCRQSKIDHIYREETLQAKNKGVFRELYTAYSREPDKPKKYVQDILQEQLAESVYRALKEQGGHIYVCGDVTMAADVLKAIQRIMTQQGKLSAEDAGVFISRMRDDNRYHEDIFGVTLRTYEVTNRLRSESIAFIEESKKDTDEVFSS
Sequence of rat nNOS (P29476 whole entry): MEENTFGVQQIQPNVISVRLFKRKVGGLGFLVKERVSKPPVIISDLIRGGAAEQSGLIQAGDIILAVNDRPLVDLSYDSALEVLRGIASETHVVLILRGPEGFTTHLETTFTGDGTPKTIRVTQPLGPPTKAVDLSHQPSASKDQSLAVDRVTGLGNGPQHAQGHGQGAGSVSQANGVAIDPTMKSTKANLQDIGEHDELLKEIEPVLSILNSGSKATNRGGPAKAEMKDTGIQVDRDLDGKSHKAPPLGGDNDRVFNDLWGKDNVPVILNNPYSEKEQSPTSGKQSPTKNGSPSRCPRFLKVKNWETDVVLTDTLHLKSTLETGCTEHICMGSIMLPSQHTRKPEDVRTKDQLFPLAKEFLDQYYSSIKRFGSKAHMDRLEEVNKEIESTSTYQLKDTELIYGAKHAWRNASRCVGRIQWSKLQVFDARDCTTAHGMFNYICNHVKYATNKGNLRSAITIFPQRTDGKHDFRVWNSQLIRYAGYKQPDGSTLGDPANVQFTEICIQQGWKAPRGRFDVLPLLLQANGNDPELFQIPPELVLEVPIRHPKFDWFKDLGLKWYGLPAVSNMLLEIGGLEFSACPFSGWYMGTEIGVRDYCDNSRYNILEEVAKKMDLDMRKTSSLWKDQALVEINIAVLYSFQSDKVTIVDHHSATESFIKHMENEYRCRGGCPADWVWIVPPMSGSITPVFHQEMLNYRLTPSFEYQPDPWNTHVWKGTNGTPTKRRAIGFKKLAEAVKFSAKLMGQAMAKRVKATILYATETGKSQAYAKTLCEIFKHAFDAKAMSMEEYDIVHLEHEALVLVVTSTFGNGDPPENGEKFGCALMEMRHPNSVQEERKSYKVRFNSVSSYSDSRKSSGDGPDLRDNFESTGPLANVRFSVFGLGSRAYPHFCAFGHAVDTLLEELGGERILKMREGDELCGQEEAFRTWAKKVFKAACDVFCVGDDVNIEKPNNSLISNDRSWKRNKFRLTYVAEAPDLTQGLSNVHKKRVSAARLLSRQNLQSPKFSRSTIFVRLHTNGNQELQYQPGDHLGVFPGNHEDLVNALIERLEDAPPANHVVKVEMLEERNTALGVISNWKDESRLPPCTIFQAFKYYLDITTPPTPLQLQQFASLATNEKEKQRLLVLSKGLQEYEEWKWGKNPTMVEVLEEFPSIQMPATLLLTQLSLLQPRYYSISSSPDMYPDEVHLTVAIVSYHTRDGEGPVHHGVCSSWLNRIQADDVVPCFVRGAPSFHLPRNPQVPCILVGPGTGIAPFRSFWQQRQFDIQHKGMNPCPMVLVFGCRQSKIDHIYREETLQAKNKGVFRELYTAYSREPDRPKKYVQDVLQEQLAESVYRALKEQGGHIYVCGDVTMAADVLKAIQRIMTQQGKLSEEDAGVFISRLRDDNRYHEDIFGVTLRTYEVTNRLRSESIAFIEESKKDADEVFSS

With `Cc1cc(N)nc(C#CCN2CCN(C)CC2)c1` [Compound 73, 4-Methyl-6-(3-(4-methylpiperazin-1-yl)prop-1-yn-1-yl)pyridin-2-amine], the negative logarithm of the Ki (pKi) is 3.94 in data set [1] (setting [8]), 6.02 in data set [2] (setting [9]) and 5.67 in data set [3] (setting [10]). This molecule also displayed a Selectivity hn/rn in data set [3] (Table 5) of 2.2.
On to `CNCCCc1cc(C)cc(N)n1` [Compound 70, 4-Methyl-6-(3-(methylamino)propyl)pyridin-2-amine hydrochloride], for which the pKi was 6.17 in data set [1] (setting [8]), 7.54 in data set [2] (setting [9]) and 7.68 in data set [3] (setting [10]). Also, in data set [3] (Table 5), the Selectivity hn/rn is reported as 1.4.
Regarding `Cc1cc(N)nc(CCc2cc(F)cc(CCCN(C)C)c2F)c1` [Compound 12, 6-(3-(3-(dimethylamino)propyl)-2,5-difluorophenethyl)-4-methylpyridin-2-amine], the negative-log Ki (pKi) in data set [4] is 5.71; in data set [2] (pH 7.4, read-out: Ki rat nNOS), 7.10; in data set [3] (setting [11]), 6.80.
In data set [5], `Cc1cc(N)nc(CCc2cc(CC[C@H]3CCCN3C)cc(F)c2F)c1` [Compound 18, (S)-6-(2,3-difluoro-5-(2-(1-methylpyrrolidin-2-yl)ethyl)phenethyl)-4-methylpyridin-2-amine] returned a Papp at 17 h, 200 μM of approximately 18 ×10⁻⁶ cm/s.
Consider `CNCc1ccc2ncc(CCc3cc(C)cc(N)n3)cc2c1` [Compound 49], for which the “Pe PAMPA-BBB” value in data set [5] is given as “No permeability”. The pKi in data set [6] was 5.42; in data set [7] it was 4.66; in data set [2] (Table 4, read-out: Ki Rat nNOS), 7.42; in data set [3] (setting [12]) it was 7.44. In data set [2] (Table 4), this molecule yielded a Selectivity n/i of 99. Moreover, in data set [3] (Table 4), the “Selectivity nNOS human/rat” value is given as 0.9. Further, the “Selectivity Human n/e” value in data set [3] (Table 4) came to 614.
For `Cc1cc(N)nc(CCc2cc(F)cc(CC[C@@H]3CCCN3C)c2)c1` [Compound 5, (R)-6-(3-fluoro-5-(2-(1-methylpyrrolidin-2-yl)ethyl)phenethyl)-4-methylpyridin-2-amine], the pKi in data set [4] was 5.54; in data set [2] (pH 7.4, read-out: Ki rat nNOS), 7.59; in data set [3] (setting [11]) it was 7.28.
In data set [6], `Cc1cc(N)nc(CCc2cc(CN(C)C)cc(F)c2F)c1` [Compound 54] gave a pKi of 7.12.
In the case of `Cc1cc(N)nc(CCc2cc(CC[C@@H]3CCCN3C)cc(F)c2F)c1` [Compound 17, (R)-6-(2,3-difluoro-5-(2-(1-methylpyrrolidin-2-yl)ethyl)phenethyl)-4-methylpyridin-2-amine], the Papp at 17 h, 200 μM in data set [5] was approximately 18 ×10⁻⁶ cm/s.
Regarding `CNCCc1cc(F)c(F)c(CCc2cc(C)cc(N)n2)c1` [Compound 60, 6-(2,3-Difluoro-5-(2-(methylamino)ethyl)phenethyl)-4-methylpyridin-2-amine], the pKi in data set [1] is 5.76; in data set [2], 7.55; in data set [3], 7.62. In data set [3] (Table 5), this molecule displayed a Selectivity hn/hi of 72. The molecule also gave a Selectivity hn/rn in data set [3] (Table 5) of 1.2.
As for `Cc1cc(N)nc(CCc2cc(C#CCN(C)C)cc(F)c2F)c1` [Compound 16, 6-(5-(3-(dimethylamino)prop-1-yn-1-yl)-2,3-difluorophenethyl)-4-methylpyridin-2-amine], the pKi in data set [4] is 5.36; in data set [2] (pH 7.4, read-out: Ki rat nNOS), 7.09; in data set [3] (setting [11]), 7.08.
Consider `Cc1cc(N)nc(CCc2c(F)c(F)cc(CC[C@H]3CCCN3C)c2F)c1` [Compound 52], for which the “Pe PAMPA-BBB” value in data set [5] was 20.3 ± 0.16 10^-6 cm/s. The pKi in data set [6] was 5.00; in data set [7] it was 4.56; in data set [2] (Table 4, read-out: Ki Rat nNOS) it was 7.03; in data set [3] (setting [12]), 6.82. In data set [2] (Table 4), this molecule yielded a Selectivity n/i of 108. The “Selectivity nNOS human/rat” value in data set [3] (Table 4) came out at 1.62. Besides, the “Selectivity Human n/e” value in data set [3] (Table 4) came out at 196.
For the molecule `CNC/C=C/c1cc(F)cc(CCc2cc(C)cc(N)n2)c1` [Compound 48], in data set [5], the “Pe PAMPA-BBB” value was 10.30 ± 0.02 10^-6 cm/s. Further, the pKi is 5.56 in data set [6]; 4.69 in data set [7]; 7.68 in data set [2] (Table 4, read-out: Ki Rat nNOS); 7.55 in data set [3] (setting [12]). In data set [2] (Table 4), the Selectivity n/i was found to be 130. The “Selectivity nNOS human/rat” value in data set [3] (Table 4) stood at 1.3. The “Selectivity Human n/e” value in data set [3] (Table 4) was found to be 721.
Take `Cc1cc(N)nc(CCc2c(F)c(F)cc(CCCN(C)C)c2F)c1` [Compound 13, 6-(3-(3-(dimethylamino)propyl)-2,5,6-trifluorophenethyl)-4-methylpyridin-2-amine]: the pKi in data set [4] is 5.49; in data set [2] (pH 7.4, read-out: Ki rat nNOS), 7.33; in data set [3] (setting [11]) it was 7.24.
For `CNCC#Cc1cc(F)cc(CCc2cc(C)cc(N)n2)c1` [Compound 2, 6-(3-fluoro-5-(3-(methylamino)prop-1-yn-1-yl)phenethyl)-4-methylpyridin-2-amine] the same measures were 5.12, 7.49 and 7.24.
`CN(C)CCc1cc(F)c(F)c(CCc2cc(C(F)(F)F)cc(N)n2)c1` [Compound 64, 6-(5-(2-(Dimethylamino)ethyl)-2,3-difluorophenethyl)-4-(trifluoromethyl)pyridin-2-amine]: the pKi in data set [7] was 3.99.
Take `Nc1cc(Cl)cc(OCc2cccc(F)c2F)n1` [Compound 68, 4-Chloro-6-((2,3-difluorobenzyl)oxy)pyridin-2-aminehydrochloride]: in data set [2] (read-out: Ki RnNOS), the pKi is 3.99.
As to `CNC/C=C\c1cc(F)cc(CCc2cc(C)cc(N)n2)c1` [Compound 47], the “Pe PAMPA-BBB” value in data set [5] is reported as 10.92 ± 0.02 10^-6 cm/s. Further, the pKi in data set [6] is 5.64; in data set [7], 4.61; in data set [2] (Table 4, read-out: Ki Rat nNOS), 7.51; in data set [3] (setting [12]), 7.11. The same molecule returned a Selectivity n/i in data set [2] (Table 4) of 73. For the same molecule, the “Selectivity nNOS human/rat” value in data set [3] (Table 4) turned out to be 2.5. Moreover, the “Selectivity Human n/e” value in data set [3] (Table 4) is 320.
Regarding `Cc1cc(N)nc(CCc2cc(F)cc(C#CCN(C)C)c2)c1` [Compound 3, 6-(3-(3-(dimethylamino)prop-1-yn-1-yl)-5-fluorophenethyl)-4-methylpyridin-2-amine], the pKi is 5.31 in data set [4]; 7.24 in data set [2] (pH 7.4, read-out: Ki rat nNOS); 6.91 in data set [3] (setting [11]). Moreover, the “drop in rat nNOS potency compared to 1” value in data set [2] is given as “more than 2 fold”. Moreover, the “drop in human nNOS potency compared to 1” value in data set [3] is more than 4 fold.
Regarding `Cc1cc(N)nc(CCc2cc(CCN(C)C)cc(F)c2F)c1` [Compound 58, 6-(5-(2-(Dimethylamino)ethyl)-2,3-difluorophenethyl)-4-methylpyridin-2-amine hydrochloride], in data set [5], the “Pe PAMPA-BBB” value is 19.5 ± 1.4 10^-6 cm/s. This molecule had a pKi in data set [6] of 5.98.
For `Cc1cc(N)nc(CCc2c(F)c(F)cc(CC[C@@H]3CCCN3C)c2F)c1` [Compound 51], the “Pe PAMPA-BBB” value in data set [5] was 20 ± 0.85 10^-6 cm/s. The pKi in data set [6] was 5.23; in data set [7], 4.53; in data set [2] (Table 4, read-out: Ki Rat nNOS) it was 7.17; in data set [3] (setting [12]), 6.95. For the same molecule, in data set [2] (Table 4), the Selectivity n/i is recorded as 88. In data set [3] (Table 4), the “Selectivity nNOS human/rat” value came out at 1.7. The “Selectivity Human n/e” value in data set [3] (Table 4) was 266.
For `Cc1cc(N)nc(CCc2cc(F)cc(CC[C@@H]3C[C@H](F)CN3)c2)c1` [Compound 8, 6-(3-fluoro-5-(2-((2R,4S)-4-fluoropyrrolidin-2-yl)ethyl)phenethyl)-4-methylpyridin-2-amine], the pKi in data set [4] is 5.34; in data set [2] (pH 7.4, read-out: Ki rat nNOS), 7.19; in data set [3] (setting [11]), 6.89. For the same molecule, the “drop in human nNOS potency compared to 1” value in data set [3] is 4 fold.
On to `CCO[C@@H]1C[C@H](CCc2cc(F)c(F)c(CCc3cc(C)cc(N)n3)c2)N(C)C1` [Compound 20, 6-(5-(2-((2S,4R)-4-ethoxy-1-methylpyrrolidin-2-yl)ethyl)-2,3-difluorophenethyl)-4-methylpyridin-2-amine], for which the pKi in data set [4] is 5.35; in data set [2] (pH 7.4, read-out: Ki rat nNOS), 7.26; in data set [3] (setting [11]), 7.06.
For `CNCC#Cc1cc(F)c(F)c(CCc2cc(C)cc(N)n2)c1F` [Compound 50], the “Pe PAMPA-BBB” value in data set [5] is reported as 19.10 ± 0.5 10^-6 cm/s. For the same molecule, the pKi in data set [6] was 5.24; in data set [7], 4.58; in data set [2] (Table 4, read-out: Ki Rat nNOS), 6.92; in data set [3] (setting [12]), 6.77. The Selectivity n/i in data set [2] (Table 4) was 48. In data set [3] (Table 4), the “Selectivity nNOS human/rat” value was determined as 1.4. Besides, the “Selectivity Human n/e” value in data set [3] (Table 4) worked out at 157.
For `CN(C)CCc1cc(F)c(F)c(CCc2cccc(N)n2)c1` [Compound 59, 6-(5-(2-(Dimethylamino)ethyl)-2,3-difluorophenethyl)pyridin-2-amine hydrochloride], the pKi in data set [2] (Ki RnNOS, Table 5, Ki from IC50 by Cheng-Prusoff, 8 to 11 concentrations) is 6.03; in data set [3] it was 5.50.
Take `Cc1cc(N)nc(CCc2cc(F)cc(CC[C@H]3CCCN3C)c2)c1` [Compound 7, (S)-6-(3-fluoro-5-(2-(1-methylpyrrolidin-2-yl)ethyl)phenethyl)-4-methylpyridin-2-amine]: the pKi was 5.47 in data set [4]; 7.48 in data set [2] (pH 7.4, read-out: Ki rat nNOS); 7.08 in data set [3] (setting [11]).
On to `Cc1cc(N)nc(CCc2cc(F)cc(CC[C@@H]3C[C@H](F)CN3C)c2)c1` [Compound 9, 6-(3-fluoro-5-(2-((2R,4S)-4-fluoro-1-methylpyrrolidin-2-yl)ethyl)phenethyl)-4-methylpyridin-2-amine], for which, in data set [4], the pKi is 5.30.
For the molecule `Cc1cc(N)nc(CCc2cc(CC[C@H]3COCCN3C)cc(F)c2F)c1` [Compound 19, (S)-6-(2,3-difluoro-5-(2-(4-methylmorpholin-3-yl)ethyl)phenethyl)-4-methylpyridin-2-amine], the pKi in data set [4] was 5.46; in data set [2] (pH 7.4, read-out: Ki rat nNOS), 7.21; in data set [3] (setting [11]), 7.05.
